Data published in ChEMBL document CHEMBL3297661, “1-Substituted-5-[(3,5-dinitrobenzyl)sulfanyl]-1H-tetrazoles and their isosteric analogs: A new class of selective antitubercular agents active against drug-susceptible and multidrug-resistant mycobacteria” (Eur J Med Chem, 2014).
pIC50: −log10 of the molar value. In brackets after ≈: the same amount, converted by molar mass.

Key:
[1] = Cytotoxicity against human HeLa cells assessed as cell viability at 30 uM after 48 hrs by MTT assay; format: cell-based; conditions: read-out: Activity
[2] = Cytotoxicity against human HuH7 cells assessed as cell viability at 30 uM after 48 hrs by MTT assay; format: cell-based, Huh-7; conditions: read-out: Activity
[3] = Cytotoxicity against human HepG2 cells assessed as cell viability at 30 uM after 48 hrs by MTT assay; format: cell-based; conditions: read-out: Activity
[4] = Cytotoxicity against MDCK2 cells assessed as cell viability at 30 uM after 48 hrs by MTT assay; format: cell-based, Canis lupus familiaris, MDCK-II; conditions: dog, read-out: Activity
HeLa = assay: Cytotoxicity against human HeLa cells assessed as reduction in cell viability after 48 hrs by MTT assay; format: cell-based
[5] = Cytotoxicity against human HuH7 cells assessed as reduction in cell viability after 48 hrs by MTT assay; format: cell-based; conditions: Huh-7, 48 h
[6] = Cytotoxicity against MDCK2 cells assessed as reduction in cell viability after 48 hrs by MTT assay; format: cell-based; conditions: Canis lupus familiaris, MDCK-II
HepG2 = assay: Cytotoxicity against human HepG2 cells assessed as reduction in cell viability after 48 hrs by MTT assay; format: cell-based; conditions: HepG2, 48 h
[7] = test system: Mycobacterium tuberculosis; assay: Antimycobacterial activity against Mycobacterium tuberculosis CNCTC My 331/88 after 14 days by micromethod; format: functional; conditions: CNCTC My 331/88, 336 h
[8] = test system: Mycobacterium tuberculosis; assay: Antimycobacterial activity against Mycobacterium tuberculosis CNCTC My 331/88 after 21 days by micromethod; format: functional; conditions: CNCTC My 331/88, 504 h
Mycobacterium avium [9] = assay: Antimycobacterial activity against Mycobacterium avium CNCTC My 330/88 after 14 days by micromethod; format: functional; conditions: CNCTC My 330/88, 336 h
Mycobacterium avium [10] = assay: Antimycobacterial activity against Mycobacterium avium CNCTC My 330/88 after 21 days by micromethod; format: functional; conditions: CNCTC My 330/88, 504 h
Mycobacterium kansasii [11] = assay: Antimycobacterial activity against Mycobacterium kansasii CNCTC My 235/80 after 7 days by micromethod; format: functional; conditions: CNCTC My 235/80, 168 h
Mycobacterium kansasii [12] = assay: Antimycobacterial activity against Mycobacterium kansasii CNCTC My 235/80 after 14 days by micromethod; format: functional; conditions: CNCTC My 235/80, 336 h
Mycobacterium kansasii [13] = assay: Antimycobacterial activity against Mycobacterium kansasii CNCTC My 235/80 after 21 days by micromethod; format: functional; conditions: CNCTC My 235/80, 504 h
Mycobacterium kansasii [14] = assay: Antimycobacterial activity against Mycobacterium kansasii 6509/96 after 7 days by micromethod; format: functional; conditions: 6509/96, 168 h
Mycobacterium kansasii [15] = assay: Antimycobacterial activity against Mycobacterium kansasii 6509/96 after 14 days by micromethod; format: functional; conditions: 6509/96, 336 h
Mycobacterium kansasii [16] = assay: Antimycobacterial activity against Mycobacterium kansasii 6509/96 after 21 days by micromethod; format: functional; conditions: 6509/96, 504 h

Row | Structure (SMILES) | viability at 48 h, 30 µM [1] | viability at 48 h, 30 µM [2] | viability at 48 h, 30 µM [3] | viability at 48 h, 30 µM [4] | pIC50 (HeLa) | pIC50 [5] | pIC50 [6] | pIC50 (HepG2) | MIC [7] | MIC [8] | MIC (Mycobacterium avium [9]) | MIC (Mycobacterium avium [10]) | MIC (Mycobacterium kansasii [11]) | MIC (Mycobacterium kansasii [12]) | MIC (Mycobacterium kansasii [13]) | MIC (Mycobacterium kansasii [14]) | MIC (Mycobacterium kansasii [15]) | MIC (Mycobacterium kansasii [16])
1 | O=[N+]([O-])c1cc(CS(=O)(=O)c2nnnn2C2CCCCC2)cc([N+](=O)[O-])c1 | 22% | 43% | 10% | 18% | 4.68 | 4.55 | > 5.12 | 5.05 | 2 µM (≈ 0.793 µg/mL) | 4 µM (≈ 1.59 µg/mL) | 32 µM (≈ 12.7 µg/mL) | 62 µM (≈ 24.6 µg/mL) | 8 µM (≈ 3.17 µg/mL) | 16 µM (≈ 6.34 µg/mL) | 16 µM (≈ 6.34 µg/mL) | 8 µM (≈ 3.17 µg/mL) | 16 µM (≈ 6.34 µg/mL) | 16 µM (≈ 6.34 µg/mL)
2 | COc1ccc(-n2nnnc2SCc2cc([N+](=O)[O-])cc([N+](=O)[O-])c2)cc1 | 39% | 86% | 90% | 123% | – | < 4.52 | < 4.52 | < 4.52 | 2 µM (≈ 0.777 µg/mL) | 4 µM (≈ 1.55 µg/mL) | 16 µM (≈ 6.21 µg/mL) | 32 µM (≈ 12.4 µg/mL) | 1 µM (≈ 0.388 µg/mL) | 4 µM (≈ 1.55 µg/mL) | 4 µM (≈ 1.55 µg/mL) | 1 µM (≈ 0.388 µg/mL) | 1 µM (≈ 0.388 µg/mL) | 2 µM (≈ 0.777 µg/mL)
3 | O=[N+]([O-])c1cc(COc2nnnn2-c2ccc(Cl)c(Cl)c2)cc([N+](=O)[O-])c1 | 69% | 111% | 27% | 22% | < 4.52 | < 4.52 | 4.66 | 4.60 | 4 µM (≈ 1.64 µg/mL) | 4 µM (≈ 1.64 µg/mL) | 32 µM (≈ 13.2 µg/mL) | 62 µM (≈ 25.5 µg/mL) | 4 µM (≈ 1.64 µg/mL) | 16 µM (≈ 6.58 µg/mL) | 32 µM (≈ 13.2 µg/mL) | 4 µM (≈ 1.64 µg/mL) | 16 µM (≈ 6.58 µg/mL) | 32 µM (≈ 13.2 µg/mL)
4 | O=[N+]([O-])c1cc(C[S+]([O-])c2nnnn2C2CCCCC2)cc([N+](=O)[O-])c1 (configuration not stated) | 62% | 84% | 42% | 52% | < 4.52 | < 4.52 | < 4.52 | 4.64 | 8 µM (≈ 3.04 µg/mL) | 16 µM (≈ 6.09 µg/mL) | 125 µM (≈ 47.5 µg/mL) | 125 µM (≈ 47.5 µg/mL) | 4 µM (≈ 1.52 µg/mL) | 16 µM (≈ 6.09 µg/mL) | 62 µM (≈ 23.6 µg/mL) | 4 µM (≈ 1.52 µg/mL) | 16 µM (≈ 6.09 µg/mL) | 32 µM (≈ 12.2 µg/mL)
5 | COc1cc(-n2nnnc2OCc2cc([N+](=O)[O-])cc([N+](=O)[O-])c2)cc(OC)c1OC | – | – | – | – | – | – | – | – | 16 µM (≈ 6.92 µg/mL) | 16 µM (≈ 6.92 µg/mL) | 32 µM (≈ 13.8 µg/mL) | 32 µM (≈ 13.8 µg/mL) | 8 µM (≈ 3.46 µg/mL) | 16 µM (≈ 6.92 µg/mL) | 32 µM (≈ 13.8 µg/mL) | 16 µM (≈ 6.92 µg/mL) | 32 µM (≈ 13.8 µg/mL) | 62 µM (≈ 26.8 µg/mL)
6 | COc1ccc(-n2nnnc2SCc2cc(N)cc([N+](=O)[O-])c2)cc1 | – | – | – | – | – | – | – | – | 250 µM (≈ 89.6 µg/mL) | 250 µM (≈ 89.6 µg/mL) | 250 µM (≈ 89.6 µg/mL) | 250 µM (≈ 89.6 µg/mL) | 250 µM (≈ 89.6 µg/mL) | 250 µM (≈ 89.6 µg/mL) | 250 µM (≈ 89.6 µg/mL) | 250 µM (≈ 89.6 µg/mL) | 250 µM (≈ 89.6 µg/mL) | 250 µM (≈ 89.6 µg/mL)
7 | O=[N+]([O-])c1ccc(CSc2nnnn2C2CCCCC2)c([N+](=O)[O-])c1 | 61% | 97% | 47% | 28% | < 4.52 | < 4.52 | 4.77 | 4.80 | 8 µM (≈ 2.92 µg/mL) | 16 µM (≈ 5.83 µg/mL) | 16 µM (≈ 5.83 µg/mL) | 32 µM (≈ 11.7 µg/mL) | 4 µM (≈ 1.46 µg/mL) | 8 µM (≈ 2.92 µg/mL) | 16 µM (≈ 5.83 µg/mL) | 16 µM (≈ 5.83 µg/mL) | 62 µM (≈ 22.6 µg/mL) | 62 µM (≈ 22.6 µg/mL)
8 | CCN(CC)c1ccc(-n2nnnc2SCc2cc([N+](=O)[O-])cc([N+](=O)[O-])c2)cc1 | – | – | – | – | – | – | – | – | 2 µM (≈ 0.859 µg/mL) | 2 µM (≈ 0.859 µg/mL) | 62 µM (≈ 26.6 µg/mL) | 62 µM (≈ 26.6 µg/mL) | 4 µM (≈ 1.72 µg/mL) | 8 µM (≈ 3.44 µg/mL) | 32 µM (≈ 13.7 µg/mL) | 8 µM (≈ 3.44 µg/mL) | 16 µM (≈ 6.87 µg/mL) | 62 µM (≈ 26.6 µg/mL)
9 | CSCc1cc([N+](=O)[O-])cc([N+](=O)[O-])c1 | – | – | – | – | – | – | – | – | 62 µM (≈ 14.2 µg/mL) | 125 µM (≈ 28.5 µg/mL) | 250 µM (≈ 57.1 µg/mL) | 250 µM (≈ 57.1 µg/mL) | 62 µM (≈ 14.2 µg/mL) | 125 µM (≈ 28.5 µg/mL) | 250 µM (≈ 57.1 µg/mL) | 125 µM (≈ 28.5 µg/mL) | 250 µM (≈ 57.1 µg/mL) | 500 µM (≈ 114 µg/mL)
10 | COc1ccc(-n2nnnc2[Se]Cc2cc([N+](=O)[O-])cc([N+](=O)[O-])c2)cc1 | 78% | 72% | 17% | 9% | < 4.52 | < 4.52 | > 5.12 | 4.72 | 1 µM (≈ 0.435 µg/mL) | 1 µM (≈ 0.435 µg/mL) | 32 µM (≈ 13.9 µg/mL) | 32 µM (≈ 13.9 µg/mL) | 1 µM (≈ 0.435 µg/mL) | 2 µM (≈ 0.871 µg/mL) | 2 µM (≈ 0.871 µg/mL) | 2 µM (≈ 0.871 µg/mL) | 4 µM (≈ 1.74 µg/mL) | 8 µM (≈ 3.48 µg/mL)
